Key:
[1] = system: ICE-like proteases (ILPs), cpp32; assay: Affinity labeling of ILPs and cpp32 immunoblotting in 293 cell extracts; format: biochemical, human; details: Granzyme B added to 293 extracts treated with vanadate
Protocol: (§1) Extracts were mixed with an equal volume of MDB containing 20 μM biotinylated YVAD.AMK and incubated at 37° C. for 4 minutes to label active ILPs. Labeling was stopped by adding an equal volume of 2×SDS sample buffer and samples were subjected to 15% SDS-PAGE. Proteins were transferred to a PVDF Immobilon P^SQ membrane (Millipore Corp.) and the membrane washed (methanol, 5 minutes) and dried (80° C., 15 minutes). The blot was incubated with avidin (1 μg/ml) followed by Biotin-horse radish peroxidase (0.05 μg/ml), and labeled proteins detected by ECL (Amersham Inc.).
Affinity blots were re-probed to detect cpp32. These membranes were soaked in methanol for 5 minutes to inactivate horseradish peroxidase, dried and re-probed with a monoclonal antibody to cpp32 (Transduction Laboratories) followed by incubation with a secondary antibody conjugated to horseradish peroxidase. The antigen-antibody complex was detected by ECL (Amersham Inc).
Prevention of apoptosis was achieved only if extracts were pre-incubated with bcl-2 before addition of nuclei. […] The same extracts were incubated alone, with buffer or with bcl-2 (40 μg/ml) for 70 minutes at 37° C. and active ILPs labeled with biotin YVAD.AMK (10 μM). Samples were subjected to 15% SDS-PAGE, transferred to a PVDF membrane and labeled ILPs visualized by ECL.

[2] = system: Interleukin-1β-converting enzyme-like proteases (ILPs); assay: Fluorescent substrate (DEVD-AFC) assay for ILP activity in 293 cell extracts; format: biochemical, human; details: for free AFC (cleaved DEVD-AFC) generated in one minute by one milligram of extract: 293 cell extracts, vanadate 5 mM, Granzyme B 2 U/ul added before shift; for free AFC (cleaved DEVD-AFC) generated in one minute by one milligram of extract / rate of ILP activation (dose response, free AFC generated per minute per milligram of extract): 60 minutes at 37° C.; for rate of ILP activation (dose response, free AFC generated per minute per milligram of extract): dialyzed S-100 extracts of 293 cells, various concentrations
Protocol: Interleukin-1β-converting enzyme-like proteases activity was measured by monitoring the cleavage of DEVD-AFC. This fluorogenic substrate DEVD-AFC consists of the peptide sequence (DEVD) which resembles the cleavage site in proteins that are degraded by ILPs, conjugated to amino-trifluoromethyl coumarin (AFC). When the peptide and the AFC molecule are attached the substrate is not fluorescent, when it is free it is fluorescent. […] The activated ILPs cleave the bond between the peptide and the AFC, resulting in increased fluorescence, which is detected using a fluorimeter. The assay is performed in a microtiter plate using the format essentially as described by Thomberry, N. A., Methods in Enzymology, 244:615-631 (1994). […] This period of time ranges from 0 to 90 minutes. During the preincubation period of a modulation assay, compounds that are to be assessed for their ability to activate or inhibit apoptosis are also introduced into the sample. Depending upon the purpose of the experiment the test compound may be present for the entire period of the preincubation or only a portion of the time. In order to measure the level of ILP activation 1 μl of extract is added to 200 μl of assay buffer (50 mM PIPES/KOH pH 7.0, 0.1 mM EDTA, 1 mM DTT, 10% glycerol) containing 20 μM DEVD-AFC (Enzyme Systems products). The release of free AFC was measured with a fluorescence plate reader, Cytofluor (Perspective Biosystems). The amount of fluorescence resulting from samples assayed in the presence and absence of potential modulatory compounds is compared to appropriate control samples and expressed as the number of free AFC molecules generated in one minutes by one milligram of cell extract.
Identifying agents that modulate the apoptotic machinery of 293 cellular extracts Dialyzed S-100 extracts of 293 cells were incubated for 60 minutes at 37° C. with various concentrations of either ATP, EDTA or sodium ortho-vanadate. ILP activity was then measured using the fluorogenic substrate assay. (FIGS. 8A-C).
To determine whether bcl-2 blocks ILP activation or inhibits the enzymatic activity of ILPs, bcl-2 was added to extracts either before or after incubation at 37° C. and monitored ILP activity by a quantitative enzymatic assay. Bc1-2 (40 μg/ml) was added to 293 extract either before incubation at 37° C. or after 15 minutes of the incubation (additions indicated by arrows). ILP activity against DEVD-AFC was measured as described above (FIG. 3).
As described below, the system described above can be used to screen for compounds that effect ILP activation. […] Vanadate (0.1, l and 5 mM) was added to extracts from 293 cells and the extracts then shifted to 37° C. and incubated for 30 minutes. The rate of DEVD-AFC proteolysis was then determined.
Vanadate (5 mM) was added to extracts either before 60 minutes incubation at 37° C. or after 60 minutes incubation. The extracts were then incubated for a further 60 minutes and the rate of DEVD-AFC proteolysis determined.
Extracts from 293 cells were incubated for 60 minutes at 37° C. Where indicated vanadate (5 mM), Granzyme B (2 U/ul ) or DEVD-CMK (10 μM) was added before the extract was shifted to 37° C. After 60 minutes the rate of DEVD-AFC proteolysis was determined. Data is representative of two experiments. In parallel, nuclei (1×10^7/ml) were incubated at 37° C. for 60 minutes with extracts treated with vanadate (5 mM), Granzyme B (2 U/ul) or DEVD-CMK (10 μM) where indicated. Nuclei were also incubated at 4° C. with extract or at 37° C. with Granzyme B but no extract.
Extracts were incubated at 37° C. and vanadate was added at the indicated times (arrows) to a final concentration of 5 mM. The rate of DEVD-AFC proteolysis in untreated extract (closed symbols) or vanadate treated extracts (open symbols) was measured at the indicated times. Data is representative of three experiments.

[3] = system: apoptotic machinery of 293 cell extracts; assay: In vitro apoptosis of isolated HeLa nuclei in 293 cell extracts; set-up: species or system human
Protocol: Extracts were prepared essentially as described (Lazebnik, Y. A., et al., J. Cell. Biol., 123:7-22 (1993)). 293 cells (5-7×10^5 cells/ml)were washed and gently resuspended in 10× pellet volumes of extract preparation buffer (50 mM PIPES pH 7.0, 50 mM KCl, 5 mM EGTA, 2mM MgCl2, 1 mM DTT) plus 0.1 mM PMSF, 10 μg/ml cytochalasin B and 2 μg/ml each of chymostatin, pepstatin, leupeptin and antipain. Cells were immediately centrifuged (200 g, 5 minutes) and lysed by three cycles of freeze/thawing with liquid nitrogen. The lysate was centrifuged at 100,000 g for two hours, giving a cell extract. […]
Intact cells or isolated nuclei were fixed with 4% paraformaldehyde, stained with DAPI (1μg/ml) and examined by fluorescence microscopy. The percentage of cells showing apoptotic nuclear morphology was determined. […]
293 cell extracts (10 μl) were incubated with isolated HeLa nuclei (1×10^5) for 60 minutes at 37° C. either alone or with biotin-YVAD-AMK (100 μM), an inhibitor of ILPs. After incubation aliquots of the reaction were fixed, stained with DAPI and examined by fluorescence microscopy.
Extracts from E1A/E1B transformed MEFs or 293 cells (10 μl) were incubated with bcl-2 (40 μg/ml) for 10 minutes at 37° C. prior to further incubation with HeLa nuclei (1×10^5) for 60 minutes. Nuclei were fixed, stained with DAPI and examined by fluorescence microscopy. […]

[4] = system: Jurkat cells; assay: Apoptotic nuclear morphology (DAPI) in intact Jurkat cells; format: cell-based; details: etoposide 50 μM
Protocol: (§2) Intact cells or isolated nuclei were fixed with 4% paraformaldehyde, stained with DAPI (1μg/ml) and examined by fluorescence microscopy. The percentage of cells showing apoptotic nuclear morphology was determined. Images were acquired using a Photometrics PXL CCD camera (Photometrics Ltd) controlled by Oncor Image software (Oncor Inc.). Figures were prepared using Adobe Photoshop software. Jurkat cells (1×10^5/ml) (FIG. 1A) or 293 cells (1×10^5/ml) (FIG. 1B) were incubated with or without etoposide (50 μM). Cells were fixed at the indicated times and stained with DAPI. The percentage of cells with apoptotic nuclear morphology was determined. Samples were also taken to assess ILP activation.

[5] = system: ICE-like proteases (ILPs) in Jurkat cells; assay: Affinity labeling of active ILPs in Jurkat cells; format: cell-based; details: Jurkat cells treated with etoposide
Protocol: (§3) Cells (2×10^6) were centrifuged (200 g, 5 minutes) and resuspended in […] MDB containing 10 μM biotinylated YVAD.AMK (plus protease inhibitors and […] cytochalasin B) and lysed by freeze/thawing for three cycles. The lysate was centrifuged (16,000 g, 20 minutes, 4° C.) and the supernatant incubated at 37° C. for 4 minutes to label active ILPs. The protein concentration was determined (Bradford assay), an equal volume of 2×SDS sample buffer added and the sample boiled for 5 minutes.
as §1
(§4) To avoid relying solely on the morphological manifestations of apoptosis, whether activation of ILPs, a biochemical hallmark of apoptosis, occurred in 293 cells treated with etoposide was also determined. Jurkat cells (2×10^6) or 293 cells (2×10^6) were incubated with biotin-YVAD-AMK, an affinity probe that labels active ILPs.

[6] = system: 293 cells; assay: Apoptotic nuclear morphology (DAPI) in intact 293 cells; format: cell-based, human; details: etoposide 50 μM
Protocol: as §2

[7] = system: ICE-like proteases (ILPs) in 293 cells; assay: Affinity labeling of active ILPs in 293 cells; format: cell-based, human; details: 293 cells treated with etoposide
Protocol: as §3, §1, §4

Granzyme B: a serine protease which activates ILPs directly
ILP activation and cpp32 processing (affinity labeling, immuno-blotting) [1]: resulted in ILP activation and cpp32 processing | free AFC (cleaved DEVD-AFC) generated in one minute by one milligram of extract [2]: 0 pmol/min | effect on vanadate inhibition of ILP activity ([2]; Granzyme B 2 U/ul added to 293 extracts treated with vanadate 5 mM): completely overcame vanadate inhibition | effect on vanadate inhibition of in vitro apoptosis (nuclei) ([3]; Granzyme B 2 U/ul added to 293 extracts treated with vanadate 5 mM, nuclei 60 minutes at 37° C.): completely overcame vanadate inhibition

biotin-YVAD-acyloxymethylketone [biotin YVAD-amk]
nuclear morphological changes of apoptosis in HeLa nuclei ([3]; 293 cell extract, inhibitor 100 μM, 60 minutes at 37° C.): prevented the nuclear morphological changes of apoptosis

Nc1ncnc2c1ncn2[C@@H]1O[C@H](COP(=O)(O)OP(=O)(O)OP(=O)(O)O)[C@@H](O)[C@H]1O [ATP]
rate of ILP activation (dose response, free AFC generated per minute per milligram of extract) [2]: increases the rate of ILP activation

O=C(O)CN(CCN(CC(=O)O)CC(=O)O)CC(=O)O [EDTA]
rate of ILP activation (dose response, free AFC generated per minute per milligram of extract) [2]: decreases the rate of ILP activation

[Na+].[Na+].[Na+].[O]=[V]([O-])([O-])[O-] [vanadate, sodium ortho vanadate]
free AFC (cleaved DEVD-AFC) generated in one minute by one milligram of extract [2]: 1.4 pmol/min | rate of ILP activation (dose response, free AFC generated per minute per milligram of extract) [2]: decreases the rate of ILP activation | ILP activity (rate of DEVD-AFC proteolysis) ([2]; vanadate 5 mM added after 60 minutes incubation at 37° C. (ILPs already active), further 60 minutes): had no effect on ILP activity | process of ILP activation (rate of DEVD-AFC proteolysis) ([2]; vanadate 5 mM added at different times after shift of 293 extract to 37° C.): arrested the process of ILP activation irrespective of when it was added | inhibition of ILP activation ([2]; vanadate 5 mM added before shift to 37° C., all extracts): complete inhibition | rate of DEVD-AFC proteolysis ([2]; vanadate 0.1, 1 and 5 mM added before shifting 293 extract to 37° C., 30 minutes): inhibited cleavage of DEVD-AFC

COc1cc([C@@H]2c3cc4c(cc3[C@@H](O[C@@H]3O[C@@H]5CO[C@@H](C)O[C@H]5[C@H](O)[C@H]3O)[C@H]3COC(=O)[C@H]23)OCO4)cc(OC)c1O [etoposide]
induction of apoptotic morphology [4]: sufficient to kill Jurkat cells | active ILPs detected by biotin-YVAD-AMK affinity labeling [5]: multiple active ILPs were detected | induction of apoptotic morphology [6]: no morphological signs of apoptosis | active ILPs detected by biotin-YVAD-AMK affinity labeling [7]: No active ILPs were detected

From patent US6555330B1, “Oncogene-induced apoptosis in drug-resistant cells” (Cold Spring Harbor Laboratory, priority 1996, dated 2003)
